One molecule from PMC3817308, “Metal-sensitive and thermostable trypsin from the crevalle jack (Caranx hippos) pyloric caeca: purification and characterization” (Chemistry Central Journal, 2013) can be followed below.

In general, Km refers to the substrate concentration at which the rate is half of its maximum.

The subject of this experiment is T1, trypsin from crevalle jack (Caranx hippos) pyloric caeca.
T1 construct: gene trypsin-like enzyme; native, purified from pyloric caeca (heat, ammonium sulfate, Sephadex G-75); mature N-terminus IVGGFECTPHVFAYQ
In words: p-nitroaniline release at […] nm, Michaelis-Menten fit. Format: biochemical. Particulars: 0.1 M Tris-HCl pH 8.0; 0.02-2.4 mM BApNA.

On to `NC(N)=NCCCC(NC(=O)c1ccccc1)C(=O)Nc1ccc([N+](=O)[O-])cc1` (racemic) [BApNA, N-α-benzoyl-DL-arginine-p-nitroanilide], for which the Michaelis constant (Km) amounted to 689 ± 50 µM.
